Among the test systems are CCRF-CEM leukemia; HCT-116 colon; HOP-62 NSCLC; KM12 colon; MALME-3M melanoma; MDA-MB-435; NCI-H23 lung; OVCAR-4 ovarian; TK-10 renal; UO-31 renal.
Experiment in all cases: NCI anticancer screen, dose series, 48 h

Molecules are shown by their SMILES. Values joined by “and” are separate entries in the source; they are usually repeats but may differ in a detail not shown here. Identical values can stand only once.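 Each compound was tested at five concentrations against cells in 96-well plates for 48 hours. TGI is the concentration that stops growth completely.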

With `N#CC(NNC(=O)c1ccccc1O)c1c(O)ccc2ccccc12` (stereo unspecified), the TGI in the assay with CCRF-CEM leukemia was more than 90.9 µM; in the assay with HCT-116 colon, 14.8 µM; in the assay with HOP-62 NSCLC, 29.5 µM; in the assay on KM12 colon, more than 100 µM; with MALME-3M melanoma it was 27.6 µM; with MDA-MB-435 it was 43.4 µM. Further, the TGI in the assay on NCI-H23 lung worked out at 20.8 µM; in the assay on OVCAR-4 ovarian it was 23.3 µM; in the assay on TK-10 renal, 36.5 µM; in the assay on UO-31 renal, 11.4 µM.

In the case of `CC(=O)NN(c1ccccc1)C1CCN(c2ccccc2)N1C(C)=O` (stereo unspecified), the TGI in the assay on CCRF-CEM leukemia, with HCT-116 colon, with HOP-62 NSCLC, in the assay with MALME-3M melanoma, with MDA-MB-435 and with NCI-H23 lung was more than 10 µM throughout. Further, the TGI with OVCAR-4 ovarian, in the assay on TK-10 renal and in the assay with UO-31 renal was more than 10 µM each time.

In the case of `COC(=O)C(=O)C(C(=O)C(=O)Nc1ccc(C)c(C)c1)c1nc2ccc([N+](=O)[O-])cc2[nH]c1=O` (stereo unspecified), the TGI in the assay with CCRF-CEM leukemia, in the assay on HCT-116 colon, in the assay with HOP-62 NSCLC, in the assay on KM12 colon, with MALME-3M melanoma and in the assay with MDA-MB-435 was more than 100 µM each time. The TGI in the assay on NCI-H23 lung, in the assay on OVCAR-4 ovarian, in the assay on TK-10 renal and with UO-31 renal was more than 100 µM throughout.

As to `Cc1ccc(-n2cc(-c3ccc(Cl)cc3)c3c(=N)n(N)cnc32)cc1`, the TGI in the assay with CCRF-CEM leukemia stood at 51.4 µM; in the assay with HCT-116 colon it was 20.3 µM; in the assay on HOP-62 NSCLC, 27.4 µM; with MALME-3M melanoma, 26.1 µM; in the assay with MDA-MB-435, 23.1 µM; in the assay with NCI-H23 lung, 30.3 µM. Moreover, the figures for the TGI with OVCAR-4 ovarian, in the assay with TK-10 renal and in the assay with UO-31 renal were 22.5 µM, 28.7 µM and 24 µM, respectively.

In the case of `CCCCCCCc1ccc(-c2nnc(N=Nc3ccc(OCCCCC)cc3)s2)s1`, the TGI in the assay on CCRF-CEM leukemia, in the assay with HCT-116 colon, in the assay with HOP-62 NSCLC, in the assay with KM12 colon, in the assay on MALME-3M melanoma and with MDA-MB-435 was more than 100 µM throughout. Further, the TGI in the assay on NCI-H23 lung, with OVCAR-4 ovarian, in the assay with TK-10 renal and in the assay with UO-31 renal was more than 100 µM each time.

For `COc1ccc(CC[N+]2(C)COc3cc4oc(=O)cc(C)c4cc3C2)cc1OC` (stereo unspecified), the TGI in the assay on CCRF-CEM leukemia, in the assay with HCT-116 colon, with HOP-62 NSCLC, in the assay on KM12 colon, in the assay on MALME-3M melanoma and in the assay with MDA-MB-435 was more than 100 µM in each case. The TGI in the assay on NCI-H23 lung, in the assay with OVCAR-4 ovarian, in the assay with TK-10 renal and with UO-31 renal was more than 100 µM throughout.

With `CCC(=C/[C@H](C)C/C=C/C(C)=C/[C@@H](C)C(=O)[C@@H](C)[C@H](O)[C@@H](C)CC)/C=C/[C@H]1CC=CC(=O)O1`, the TGI was 0.179 µM in the assay on CCRF-CEM leukemia; 0.002 µM in the assay on HCT-116 colon; 2.05 µM and 13 µM in the assay with HOP-62 NSCLC; 2.31 µM in the assay with MALME-3M melanoma; 0.166 µM in the assay on MDA-MB-435; 5.26 µM and 13.3 µM in the assay with NCI-H23 lung. Moreover, the TGI in the assay with OVCAR-4 ovarian is 12 µM; with TK-10 renal it was 1.91 µM and 14.3 µM.

On to `Cc1cc2occ(S(=O)(=O)NC(=O)Nc3ccc(Cl)cc3)c(=O)c2c(=O)o1`, for which the TGI in the assay with CCRF-CEM leukemia, in the assay with HCT-116 colon, with HOP-62 NSCLC, with KM12 colon, in the assay with MALME-3M melanoma and in the assay with MDA-MB-435 was more than 100 µM in each case. The TGI in the assay on NCI-H23 lung, in the assay with OVCAR-4 ovarian, in the assay with TK-10 renal and in the assay with UO-31 renal was more than 100 µM in each case.

As for `O=C(O)CCC1NC(/C(=C/c2ccccc2O)NC(=O)c2ccccc2)OC1=O` (stereo unspecified), the TGI in the assay on CCRF-CEM leukemia was more than 100 µM; in the assay on HCT-116 colon, more than 100 µM; in the assay with HOP-62 NSCLC, 62.4 µM; in the assay with KM12 colon, more than 100 µM; with MALME-3M melanoma, more than 100 µM; with MDA-MB-435, more than 100 µM. In addition, the TGI was more than 100 µM in the assay with NCI-H23 lung, more than 100 µM in the assay with OVCAR-4 ovarian, more than 100 µM in the assay on TK-10 renal and 45.8 µM in the assay with UO-31 renal.

Consider `COc1cccc(CCCNC(=O)Cc2ccccc2CO)c1`, for which the TGI in the assay with CCRF-CEM leukemia, in the assay with HCT-116 colon, in the assay with HOP-62 NSCLC, in the assay with KM12 colon, with MALME-3M melanoma and with MDA-MB-435 was more than 100 µM throughout. Besides, the TGI with NCI-H23 lung, in the assay with OVCAR-4 ovarian, in the assay with TK-10 renal and in the assay on UO-31 renal was more than 100 µM in each case.

Turning to `CCCCCCCCCCCCC1N=C(N)N2CCCC2=C1C(=O)OC` (stereo unspecified), the TGI in the assay on CCRF-CEM leukemia was determined as 3.89 µM; with HCT-116 colon it was 3.34 µM; in the assay on HOP-62 NSCLC, 9.95 µM; with KM12 colon, 3.94 µM; in the assay on MALME-3M melanoma it was 3.64 µM; in the assay with MDA-MB-435, 3.09 µM. The TGI was 6.17 µM in the assay with NCI-H23 lung, 5.86 µM with OVCAR-4 ovarian, more than 48.7 µM with TK-10 renal and 24.4 µM with UO-31 renal.

With `Cc1ccccc1Nc1nc2ccccc2nc1NS(=O)(=O)c1ccccc1`, the TGI in the assay on CCRF-CEM leukemia, with HCT-116 colon, in the assay with HOP-62 NSCLC, in the assay with KM12 colon, with MALME-3M melanoma and with MDA-MB-435 was more than 100 µM each time. Further, the TGI in the assay on NCI-H23 lung, in the assay with OVCAR-4 ovarian, in the assay on TK-10 renal and in the assay with UO-31 renal was more than 100 µM throughout.

For `C/C(Nc1ccc(Cl)cc1)=C1/CCOC1=O`, the TGI in the assay on CCRF-CEM leukemia, with HCT-116 colon, in the assay with HOP-62 NSCLC, with KM12 colon, in the assay with MALME-3M melanoma and in the assay on MDA-MB-435 was more than 100 µM in each case. Also, the TGI in the assay on NCI-H23 lung, with OVCAR-4 ovarian, with TK-10 renal and with UO-31 renal was more than 100 µM throughout.

The values above are taken from PubChem BioAssay (NCI).
